From PubChem BioAssay AID1918941 (Molecular Pharmacology Branch, DTP, NCI, 2023)
Values joined by “and” are separate entries in the source; they are usually repeats but may differ in a detail not shown here. Equal entries are not always repeated. Each block holds one molecule with its values, some of them ahead of it.

Tested on: SW 1271 complex spheroids, viability
Assay: Anticancer human tumor SW 1271 cell line growth inhibition [LSD1];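 note: spheroids exposed to agents for 7 days before luminescence read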;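 for viability, T/C: 100% = DMSO vehicle control viability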
Conditions: for viability, T/C: stronger effect = lower value
Source text: Multicellular complex tumor spheroid response to LSD1 Inhibitor Iadademstat in combination with a variety of drugs and investigational agents in selected tumor cell lines
The current study was undertaken to assess response to LSD1 inhibitors in combination with standard-of-care drugs and investigational agents in solid tumor complex spheroid models as well as in the K-562 leukemia. Complex spheroids include a stromal component modeled by human endothelial cells (HUVEC) and fibroblasts modeled by human mesenchymal stem cells (MSCs). The concentration ranges selected for each drug and investigational agent were based upon clinically achievable concentrations if the clinical Cmax of the agent was known.
Compounds. The drugs and investigational agents used in this study are listed on Table 1. All of the agents used, including staurosporine (NSC755774) and gemcitabine (NSC613327), were obtained from the Developmental Therapeutics Program, NCI. FDA-approved anticancer drugs are available from the NCI at http://dtp.nci.nih.gov/branches/dscb/oncology_drugset_explanation.html. Drugs and investigational agents were >95% pure by proton nuclear magnetic resonance (NMR) and liquid chromatography/mass spectrometry (LC/MS). Stock solutions were prepared at 400x in DMSO, stored at -70 degrees C, and diluted in fresh medium prior to their use. The final concentration of DMSO in cell culture wells never exceeded 0.25% (v/v). The FDA-approved anticancer drug set is available from the Developmental Therapeutics Program at https://dtp.cancer.gov/organization/dscb/obtaining/available_plates.htm. All drugs and investigational agents were tested over a range starting from a high concentration at or near the clinical Cmax and decreasing in half-log increments. If the clinical Cmax for an agent had not been determined, the highest concentration tested was 10 microM.
Cell Lines. The patient-derived cancer cell (PDC) lines: 292921-168-R-J2-PDC, K24384-001-R-PDC, and 521955-158-R2-J5-PDC pancreatic carcinomas, 556581-035-R-J1 ovarian carcinoma, 324938-238-R-J1-PDC, 855422-203-R-J1-PDC and 883617-216-R-J1-PDC urothelial bladder carcinomas, 743489-274-T-PDC renal cell carcinoma, 138582-R-J1 Merkel cell tumor, K60290-347-R-J1 and K57222-313-R-J1-PDC glioblastomas, 653999-131-R-J2-PDC, LG0703-F948-PDC, and 349418-098-R-PDC non-small cell lung carcinomas, 885512-296-R-J2-PDC, 171881-019-R-J1-PDC breast carcinomas and 186277-243-T-J2-PDC and 233499-124-R-J2-PDC colon carcinomas were obtained from the NCI Patient-Derived Models Repository (PDMR, https://pdmr.cancer.gov). The established cell lines NCI/ADR-RES (RRID:CVCL_14520 and OVCAR-5 (RRID:CVCL_1628) ovarian carcinomas, 786-O (RRID:CVCL_1051) and A498 (RRID:CVCL_A498) renal cell carcinoma, NCI-H211 (ATCC, cat. CRL-5824; RRID:CVCL_1529), NCI-H196 (ATCC, cat. CRL-5823, RRID:CVCL_1509), SW 1271 (ATCC, cat. CRL-2177, RRID:CVCL_1716) and NCI-H1876 (ATCC, cat. CRL-5902, RRID:CVCL_1503) small cell lung carcinomas, MDA-MB-231 (RRID:CVCL_0062) and MDA-MB-468 (RRID:CVCL_0419)breast carcinomas (10-12). Pooled donor human umbilical vein endothelial cells (HUVEC, Lonza, cat. CC-2519) and human mesenchymal stem cells (hMSC, Lonza, cat. PT-2501) were purchased from Lonza (Walkersville, MD).
Cell Culture. All cells were maintained in an incubator at 37 degrees C and 5% CO2 with 95% humidity. The PDC lines were cultured according to standard operating procedures established by the NCI PDMR (https://pdmr.cancer.gov). Briefly all PDCs were thawed and cultured in Matrigel-coated flasks prepared with a working solution of 1X Ham's F-12 nutrient mix, without supplementation (Invitrogen, Waltham, MA, cat. 11765054), 100 U/mL penicillin-streptomycin (Invitrogen, cat. 15140122), and 2.5% Matrigel (Corning Inc., Corning, NY, cat. 354248) for the first three passages. […]

IC50 (curve of compound): > 10000 nM
SMILES: CC(C)c1c(-c2ccccc2)nc2c(C#N)c[nH]n2c1=O
viability, T/C (compound 0.0316 µM): 85.1% and 98.1%
viability, T/C (compound 0.1 µM): 83.1% and 98.6%
viability, T/C (compound 0.316 µM): 83.4% and 100%
viability, T/C (compound 1 µM): 89.3% and 88.1%
viability, T/C (compound 3.16 µM): 86.2% and 91.6%
viability, T/C (compound 10 µM): 75.1% and 94.7%

IC50 (curve of compound): > 10000 nM and 3980 nM
SMILES: CC1COCCN1c1cc(C2(S(C)(=N)=O)CC2)nc(-c2ccnc3[nH]ccc23)n1 (configuration not stated)
viability, T/C (compound 0.0316 µM): 106% and 85.9%
viability, T/C (compound 0.1 µM): 97% and 88.6%
viability, T/C (compound 0.316 µM): 88.2% and 78.9%
viability, T/C (compound 1 µM): 79% and 65.3%
viability, T/C (compound 3.16 µM): 62% and 54.3%
viability, T/C (compound 10 µM): 62.1% and 39.4%

IC50 (compound alone, run of 02/21/2022): > 10000 nM
SMILES: NC1CC1c1ccc(-c2cccc(O)c2)cc1 (configuration not stated)
viability, T/C (compound 0.1 µM): 86.2%
viability, T/C (compound 10 µM): 63.2% [middle of 25 runs]

IC50 (compound alone, run of 02/15/2022): > 10000 nM
SMILES: NC1CCC(NC2CC2c2ccccc2)CC1 (configuration not stated)
viability, T/C (compound 0.316 µM): 77.1% and 85.3%

IC50 (curve of compound): > 10000 nM
SMILES: O=C(c1cc(Cc2n[nH]c(=O)c3ccccc23)ccc1F)N1CCN(C(=O)C2CC2)CC1
viability, T/C (compound 0.0316 µM): 84.9% and 80.2%
viability, T/C (compound 0.1 µM): 85.2% and 85.3%
viability, T/C (compound 0.316 µM): 81.4% and 76.1%
viability, T/C (compound 1 µM): 81.5% and 85.4%
viability, T/C (compound 3.16 µM): 90.2% and 77%
viability, T/C (compound 10 µM): 87.5% and 68.8%

Further lines, the molecule ahead of its results:

SMILES: CC1(C)CCC(CN2CCN(c3ccc(C(=O)NS(=O)(=O)c4ccc(NCC5CCOCC5)c([N+](=O)[O-])c4)c(Oc4cnc5[nH]ccc5c4)c3)CC2)=C(c2ccc(Cl)cc2)C1
viability, T/C (compound 0.0316 µM): 93.1% and 103%
viability, T/C (compound 0.1 µM): 97.7% and 112%
viability, T/C (compound 0.316 µM): 87.7% and 98.3%
viability, T/C (compound 1 µM): 101% and 102%
viability, T/C (compound 3.16 µM): 28.1% and 55.8%
viability, T/C (compound 10 µM): 0.45% and 4.57%
IC50 (curve of compound): 2170 nM and 3600 nM

SMILES: CCN(c1cc(-c2ccc(CN3CCOCC3)cc2)cc(C(=O)NCc2c(C)cc(C)[nH]c2=O)c1C)C1CCOCC1
viability, T/C (compound 0.00949 µM): 98.8% and 104%
viability, T/C (compound 0.03 µM): 116% and 109%
viability, T/C (compound 0.0949 µM): 90.8% and 91.2%
viability, T/C (compound 0.3 µM): 103% and 98.9%
viability, T/C (compound 0.949 µM): 78.3% and 82.5%
viability, T/C (compound 3 µM): 73.6% and 71.4%
IC50 (curve of compound): > 3000 nM

SMILES: COc1ccc([C@@H](O)c2cc(-c3ncnc4cc(N5CCOCC5)ccc34)c(F)cc2Cl)nn1
viability, T/C (compound 0.0316 µM): 79.9% and 85.5%
viability, T/C (compound 0.1 µM): 74.7% and 91.9%
viability, T/C (compound 0.316 µM): 54.5% and 64%
viability, T/C (compound 1 µM): 40.4% and 45.4%
viability, T/C (compound 3.16 µM): 31.7% and 28.2%
viability, T/C (compound 10 µM): 20.3% and 21.4%
IC50 (curve of compound): 523 nM and 741 nM

SMILES: Nc1ncn(C2CC(O)C(CO)O2)c(=O)n1 (configuration not stated) + NC1CC1c1ccc(-c2cccc(O)c2)cc1
IC50 (curve of first compound, second compound 0.1 µM): > 1000 nM
IC50 (curve of first compound, second compound 0.316 µM): > 1000 nM
IC50 (curve of first compound, second compound 1 µM): > 1000 nM
IC50 (curve of first compound, second compound 3.16 µM): > 1000 nM
IC50 (curve of first compound, second compound 10 µM): > 1000 nM
viability, T/C (second compound 0.1 µM, first compound 0.00316 µM): 96.2%
viability, T/C (second compound 0.1 µM, first compound 0.01 µM): 77.9%
viability, T/C (second compound 0.1 µM, first compound 0.0316 µM): 84.7%
viability, T/C (second compound 0.1 µM, first compound 0.1 µM): 62.4%
viability, T/C (second compound 0.1 µM, first compound 0.316 µM): 66.7%
viability, T/C (second compound 0.1 µM, first compound 1 µM): 81%
viability, T/C (second compound 0.316 µM, first compound 0.00316 µM): 68%
viability, T/C (second compound 0.316 µM, first compound 0.01 µM): 73.2%
viability, T/C (second compound 0.316 µM, first compound 0.0316 µM): 75.2%
viability, T/C (second compound 0.316 µM, first compound 0.1 µM): 71.6%
viability, T/C (second compound 0.316 µM, first compound 0.316 µM): 70.5%
viability, T/C (second compound 0.316 µM, first compound 1 µM): 77.7%
viability, T/C (second compound 1 µM, first compound 0.00316 µM): 76.4%
viability, T/C (second compound 1 µM, first compound 0.01 µM): 73.5%
viability, T/C (second compound 1 µM, first compound 0.0316 µM): 81.8%
viability, T/C (second compound 1 µM, first compound 0.1 µM): 56.2%
viability, T/C (second compound 1 µM, first compound 0.316 µM): 69.5%
viability, T/C (second compound 1 µM, first compound 1 µM): 64.1%
viability, T/C (second compound 3.16 µM, first compound 0.00316 µM): 69.5%
viability, T/C (second compound 3.16 µM, first compound 0.01 µM): 69.7%
viability, T/C (second compound 3.16 µM, first compound 0.0316 µM): 69.8%
viability, T/C (second compound 3.16 µM, first compound 0.1 µM): 63.9%
viability, T/C (second compound 3.16 µM, first compound 0.316 µM): 52.7%
viability, T/C (second compound 3.16 µM, first compound 1 µM): 72.7%
viability, T/C (second compound 10 µM, first compound 0.00316 µM): 69.5%
viability, T/C (second compound 10 µM, first compound 0.01 µM): 70.6%
viability, T/C (second compound 10 µM, first compound 0.0316 µM): 61%
viability, T/C (second compound 10 µM, first compound 0.1 µM): 57.9%
viability, T/C (second compound 10 µM, first compound 0.316 µM): 57.7%
viability, T/C (second compound 10 µM, first compound 1 µM): 59%
